Assay [1] has as its target T1, Spr1654 (Streptococcus pneumoniae, UniProt A0A0H2URM1).
T1 construct: gene SP_1837; full-length, C-terminal His6 tag (pET-23b), expressed in E. coli T7 Express; homodimer; residues Tyr4-Thr404 seen in crystals
Kind of assay: transamination half-reaction, PLP ([…] nm) to PMP ([…] nm) absorbance. The assay is classed as biochemical. The conditions noted are these: 0.5 mM L-glutamate, Spr1654/PLP 0.9 mg/ml, 50 mM MES pH 6.6, 200 mM NaCl, 25 °C; amino donor.

In assay [2] the target is T1, Spr1654. Kind of assay: X-ray crystal structure, […] Å; absorption spectroscopy ([…] nm). The assay is classed as binding. The conditions noted are these: covalent; internal aldimine with Lys199; 1 mM PLP preincubated, pH 7.5.
Assay [3] has as its target T1, Spr1654. Kind of assay: X-ray crystal structure, […] Å. Format: binding. As to conditions: PMP formed by adding L-glutamate to the PLP complex before crystallization; active site.
Assay [4] addresses Spr1654 aminotransferase from Streptococcus pneumoniae, full length with C-terminal poly-histidine (Streptococcus pneumoniae) (UniProt Q8DNL6). Kind of assay: SEC; Superdex200 Increase 10/300 GL gel filtration, 20 mM Tris-HCl pH 7.5, 200 mM NaCl, 4°C; oligomeric state from the elution profile. In general terms: SEC sorts molecules by how far they enter the pores of the column.

What is called stoichiometry N is the number of molecules, sites or subunits per partner or assembly.

Turning to `N[C@@H](CCC(=O)O)C(=O)O` [E, L-glutamate], the “transamination half-reaction, PLP (420 nm) to PMP (330 nm) absorbance” value on Spr1654 [1] is listed as “Spr1654 is able to deaminate L-glutamate in the first half-reaction of transamination with high efficiency”.

For the compound `Cc1ncc(COP(=O)(O)O)c(C=O)c1O` [PLP], the “X-ray crystal structure, 2.2 Å; absorption spectroscopy (420 nm)” value at Spr1654 [2] is “Clear electron density confirms the formation of a covalent bond between PLP and residue Lys199”.

Consider `Cc1ncc(COP(=O)(O)O)c(CN)c1O` [PMP], for which, on Spr1654 [3], the “X-ray crystal structure, 2.4 Å” value is listed as “In the crystal structure of the Spr1654/PMP complex, the phosphate group serves as the main anchor”.

In assay [4], “Spr1654 aminotransferase from Streptococcus pneumoniae, full length with C-terminal poly-histidine (from UniProt Q8DNL6 1-417) (enzyme)” returned a stoichiometry N of 2.

For the origin of these results see PMC5936713, “Structural and functional studies of Spr1654: an essential aminotransferase in teichoic acid biosynthesis in Streptococcus pneumoniae” (Open Biology, 2018).
